According to BindingDB's records for doi:10.1021/bi9007287 (Max Planck Research, 2009):

Legend:
[1] = target: T1, Peptidyl-prolyl cis-trans isomerase-like 1 (Homo sapiens, UniProt Q9Y3C6); assay: PPIase Assay; conditions: pH 7.8; 5 °C
T1 sequence (Q9Y3C6 whole entry): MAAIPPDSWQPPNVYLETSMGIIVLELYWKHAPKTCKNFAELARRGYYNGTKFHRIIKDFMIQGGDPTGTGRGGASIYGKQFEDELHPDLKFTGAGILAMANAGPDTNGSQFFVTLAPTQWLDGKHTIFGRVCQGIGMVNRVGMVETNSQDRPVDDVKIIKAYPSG

[2] = target: Peptidyl-prolyl cis-trans isomerase A (Homo sapiens, UniProt P62937); assay: PPIase Assay; conditions: pH 7.8; 5 °C
[3] = target: Peptidyl-prolyl cis-trans isomerase B (Human, UniProt P23284); assay: PPIase Assay; conditions: pH 7.8; 5 °C
[4] = target: Peptidyl-prolyl cis-trans isomerase H (Homo sapiens, UniProt O43447); assay: PPIase Assay; conditions: pH 7.8; 5 °C
[5] = target: Peptidyl-prolyl cis-trans isomerase C (Mus musculus) (UniProt P30412); assay: PPIase activity assay were performed at 283 K in quartz cuvettes with a path length of 1 cm under vigorous stirring with a Hewlett-Packard 8453A UV-vis spectrophotometer in 35 mM HEPES buffer (pH 7.8).
Sequence of Peptidyl-prolyl cis-trans isomerase C (Mus musculus) (P30412 whole entry, looked up): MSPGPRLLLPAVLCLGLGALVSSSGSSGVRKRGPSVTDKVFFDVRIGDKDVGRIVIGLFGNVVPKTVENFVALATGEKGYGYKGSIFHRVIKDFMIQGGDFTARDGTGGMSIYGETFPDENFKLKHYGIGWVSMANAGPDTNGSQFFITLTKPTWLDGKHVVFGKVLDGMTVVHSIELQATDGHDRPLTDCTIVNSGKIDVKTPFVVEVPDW

Sequence of Peptidyl-prolyl cis-trans isomerase A (P62937 whole entry): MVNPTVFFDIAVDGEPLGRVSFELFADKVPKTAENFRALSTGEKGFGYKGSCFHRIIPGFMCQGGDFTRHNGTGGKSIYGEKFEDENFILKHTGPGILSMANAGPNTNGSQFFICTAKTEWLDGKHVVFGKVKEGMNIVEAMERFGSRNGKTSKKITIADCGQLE
Sequence of Peptidyl-prolyl cis-trans isomerase B (P23284 whole entry): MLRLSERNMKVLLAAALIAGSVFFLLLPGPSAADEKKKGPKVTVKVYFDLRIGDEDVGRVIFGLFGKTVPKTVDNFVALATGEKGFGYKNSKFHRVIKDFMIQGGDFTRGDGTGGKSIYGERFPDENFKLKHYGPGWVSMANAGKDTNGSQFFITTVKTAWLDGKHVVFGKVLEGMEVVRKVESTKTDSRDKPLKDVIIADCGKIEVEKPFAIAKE
Sequence of Peptidyl-prolyl cis-trans isomerase H (O43447 whole entry): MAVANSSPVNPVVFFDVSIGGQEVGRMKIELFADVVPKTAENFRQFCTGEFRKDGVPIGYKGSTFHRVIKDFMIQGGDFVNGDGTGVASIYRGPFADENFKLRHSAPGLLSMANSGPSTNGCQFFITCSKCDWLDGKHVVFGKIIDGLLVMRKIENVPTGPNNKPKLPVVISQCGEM

Row | SMILES | Ki [1] | Ki [2] | Ki [3] | Ki [4] | Ki [5]
1 | O=C(c1cc(-c2cc(F)cc([N+](=O)[O-])c2O)cc([N+](=O)[O-])c1O)C1CCc2ccccc21 (centres undefined) [Aryl 1-indanylketone, 1] | 29 µM | 0.52 µM | > 100 µM | > 100 µM | > 100 µM
2 | Nc1cc(F)cc(-c2ccc(O)c(C(=O)C3CCc4ccccc43)c2)c1O (centres undefined) [Aryl 1-indanylketone, 2] | > 100 µM | 0.3 µM | 12 µM | > 100 µM | > 100 µM
3 | COc1ccc(F)cc1-c1cc(N)c(O)c(C(=O)C2CCc3ccccc32)c1 (centres undefined) [Aryl 1-indanylketone, 3] |  | 1.7 µM | 8.6 µM |  | 
4 | COc1ccc(-c2ccc(OC(F)(F)F)cc2)cc1C(=O)C1CCc2ccccc21 (centres undefined) [Aryl 1-indanylketone, 4] |  | 1.2 µM | 2.1 µM |  | 
5 | COc1ccc(C(F)(F)F)cc1C(=O)C1CCc2ccccc21 (centres undefined) [Aryl 1-indanylketone, 5] |  | 10 µM | > 100 µM |  | 
6 | COc1ccc(F)cc1C(=O)C1(C)CCc2ccccc21 (centres undefined) [Aryl 1-indanylketone, 6] |  | > 100 µM | > 100 µM |  | 
7 | COc1ccc2c(c1)C1(CC(C)c3ccccc31)C(=O)O2 (centres undefined) [Benzofuranone, 7] |  | 21 µM | > 100 µM |  | 
8 | O=C1Oc2ccccc2C12Cc1ccccc1C2 [Benzofuranone, 8] |  | > 100 µM | > 100 µM |  | 
9 | COc1ccc2c(c1)C(=O)C1(Cc3ccccc3C1)O2 [Benzofuranone, 9] |  | > 100 µM | 63 µM |  | 
